Measurements as given in the NIST ThermoML archive (doi:10.1021/acs.jced.7b00840).
Numbers after ± are expanded uncertainties.

Conditions: Crystal; visual observation

Row | Structure (SMILES) | Triple point temperature
1 | Nc1ccc(I)cc1 [4-iodoaniline] | 332.35 ± 0.87 K
2 | Nc1ccccc1I [2-iodoaniline] | 325.7 ± 1.2 K
